Values quoted from earlier work as cited in publication PMC3433420 (PLoS ONE, 2012).
pKd: −log10 of the molar value. Like-named read-outs stand apart in the source and are kept apart here.

Columns and labels:
[1] = biological target: SH2 and PTB domains; conditions: most recent PM interactions, cited from earlier work
Excerpt: Supplement pone.0044471.s022.xlsx, sheet "Most recent PM interactions" | column: Kd || Supplement pone.0044471.s022.xlsx, sheet "All original PM interactions" | column: Kd

[2] = biological target: GRB7 SH2 domain (Homo sapiens, UniProt Q14451); set-up: 6X His; thioredoxin; made in house; host or cells: E. coli BL21(DE3)pLysS; conditions: Protein GRB7, most recent PM interactions, cited from earlier work
[3] = Protein BLK, ref Jones et al. 2006 / Kaushansky et al. Chem and Biol 2008
[4] = Protein SRC, ref Jones et al. 2006 / Kaushansky et al. Chem and Biol 2008
[5] = Protein SYK-NC, ref Jones et al. 2006 / Kaushansky et al. Chem and Biol 2008
[6] = Protein YES1, ref Jones et al. 2006 / Kaushansky et al. Chem and Biol 2008
[7] = ref Jones et al. 2006 / Kaushansky et al. Chem and Biol 2008

Sequence of GRB7 SH2 domain (Q14451 431-527 limits assumed): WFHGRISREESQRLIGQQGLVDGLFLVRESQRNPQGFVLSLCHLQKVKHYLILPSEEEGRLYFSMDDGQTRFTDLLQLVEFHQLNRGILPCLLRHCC

EHKDNIGSQpYLLNWCVQd [ErbB1 813]
pKd ([1]; Protein ABL2, ref Kaushansky et al. Mol Biosys 2008): 6.70 | pKd ([1]; Protein GRB10, ref Kaushansky et al. Mol Biosys 2008): 6.46 | pKd ([1]; Protein ITK, ref Kaushansky et al. Mol Biosys 2008): 6.51 | pKd ([1]; Protein NCK2, ref Kaushansky et al. Mol Biosys 2008): 6.70 | pKd ([1]; Protein PIK3R1-C, ref Kaushansky et al. Mol Biosys 2008): 5.73 | pKd ([1]; Protein PIK3R1-NC, ref Kaushansky et al. Mol Biosys 2008): 5.74 | pKd ([1]; Protein PIK3R3-NC, ref Kaushansky et al. Mol Biosys 2008): 5.73 | pKd ([1]; Protein RASA1-C, ref Kaushansky et al. Mol Biosys 2008): 5.71 | pKd ([1]; Protein RASA1-NC, ref Kaushansky et al. Mol Biosys 2008): 6.80 | pKd ([1]; Protein SH2D1B, ref Kaushansky et al. Mol Biosys 2008): 5.80 | pKd ([1]; Protein SH2D3C, ref Kaushansky et al. Mol Biosys 2008): 7.30 | pKd ([1]; Protein SHB, ref Kaushansky et al. Mol Biosys 2008): 6.55 | pKd ([1]; Protein SHE, ref Kaushansky et al. Mol Biosys 2008): 5.86 | pKd ([1]; Protein SHF, ref Kaushansky et al. Mol Biosys 2008): 5.97 | pKd ([1]; Protein SRC, ref Kaushansky et al. Mol Biosys 2008): 7.10 | pKd ([1]; Protein SYK-NC, ref Kaushansky et al. Mol Biosys 2008): 6.62 | pKd ([1]; Protein TENC1, ref Kaushansky et al. Mol Biosys 2008): 5.94 | pKd ([1]; Protein TNS3, ref Kaushansky et al. Mol Biosys 2008): 5.72 | pKd ([1]; Protein VAV1, ref Kaushansky et al. Mol Biosys 2008): 6.43 | pKd ([1]; Protein VAV2, ref Kaushansky et al. Mol Biosys 2008): 6.33 | pKd ([1]; Protein VAV3, ref Kaushansky et al. Mol Biosys 2008): 6.02 | pKd ([1]; Protein YES1, ref Kaushansky et al. Mol Biosys 2008): 7.66 | pKd ([2]; ref Kaushansky et al. Mol Biosys 2008): 6.34

LPSPTDSNFpYRALMDEEd [ErbB1 998]
pKd ([1]; Protein BLK, ref Jones et al. 2006 / Kaushansky et al. Mol Biosys 2008 / Kaushansky et al. Chem and Biol 2008): 6.72 | pKd ([1]; Protein FES, ref Jones et al. 2006 / Kaushansky et al. Mol Biosys 2008 / Kaushansky et al. Chem and Biol 2008): 5.91 | pKd ([1]; Protein GRB10, ref Jones et al. 2006 / Kaushansky et al. Mol Biosys 2008 / Kaushansky et al. Chem and Biol 2008): 5.77 | pKd ([1]; Protein ITK, ref Jones et al. 2006 / Kaushansky et al. Mol Biosys 2008 / Kaushansky et al. Chem and Biol 2008): 6.55 | pKd ([1]; Protein PIK3R1-NC, ref Jones et al. 2006 / Kaushansky et al. Mol Biosys 2008 / Kaushansky et al. Chem and Biol 2008): 6.62 | pKd ([1]; Protein PIK3R3-NC, ref Jones et al. 2006 / Kaushansky et al. Mol Biosys 2008 / Kaushansky et al. Chem and Biol 2008): 6.01 | pKd ([1]; Protein PLCG2-NC, ref Jones et al. 2006 / Kaushansky et al. Mol Biosys 2008 / Kaushansky et al. Chem and Biol 2008): 5.86 | pKd ([1]; Protein RASA1-N, ref Jones et al. 2006 / Kaushansky et al. Mol Biosys 2008 / Kaushansky et al. Chem and Biol 2008): 6.15 | pKd ([1]; Protein RASA1-NC, ref Jones et al. 2006 / Kaushansky et al. Mol Biosys 2008 / Kaushansky et al. Chem and Biol 2008): 5.78 | pKd ([1]; Protein SH2B3, ref Jones et al. 2006 / Kaushansky et al. Mol Biosys 2008 / Kaushansky et al. Chem and Biol 2008): 5.87 | pKd ([1]; Protein SHC1-PTB, ref Jones et al. 2006 / Kaushansky et al. Mol Biosys 2008 / Kaushansky et al. Chem and Biol 2008): 5.94 | pKd ([1]; Protein SHC2-PTB, ref Jones et al. 2006 / Kaushansky et al. Mol Biosys 2008 / Kaushansky et al. Chem and Biol 2008): 6.01 | pKd ([1]; Protein SRC, ref Jones et al. 2006 / Kaushansky et al. Mol Biosys 2008 / Kaushansky et al. Chem and Biol 2008): 5.94 | pKd ([1]; Protein SYK-NC, ref Jones et al. 2006 / Kaushansky et al. Mol Biosys 2008 / Kaushansky et al. Chem and Biol 2008): 6.04 | pKd ([1]; Protein YES1, ref Jones et al. 2006 / Kaushansky et al. Mol Biosys 2008 / Kaushansky et al. Chem and Biol 2008): 6.14 | pKd ([1]; Protein ZAP70-NC, ref Jones et al. 2006 / Kaushansky et al. Mol Biosys 2008 / Kaushansky et al. Chem and Biol 2008): 5.78 | pKd ([2]; ref Jones et al. 2006 / Kaushansky et al. Mol Biosys 2008 / Kaushansky et al. Chem and Biol 2008): 6.12

MGDLVDAEEpYLVPQQGF [ErbB2 1023]
pKd [1, 3]: 6.22 | pKd ([1]; Protein ITK, ref Jones et al. 2006 / Kaushansky et al. Chem and Biol 2008): 6.35 | pKd ([1]; Protein PIK3R1-NC, ref Jones et al. 2006 / Kaushansky et al. Chem and Biol 2008): 5.79 | pKd ([1]; Protein PIK3R2-N, ref Jones et al. 2006 / Kaushansky et al. Chem and Biol 2008): 5.71 | pKd ([1]; Protein PIK3R3-N, ref Jones et al. 2006 / Kaushansky et al. Chem and Biol 2008): 5.71 | pKd ([1]; Protein PIK3R3-NC, ref Jones et al. 2006 / Kaushansky et al. Chem and Biol 2008): 6.28 | pKd ([1]; Protein PLCG1-C, ref Jones et al. 2006 / Kaushansky et al. Chem and Biol 2008): 5.84 | pKd ([1]; Protein RASA1-N, ref Jones et al. 2006 / Kaushansky et al. Chem and Biol 2008): 5.70 | pKd ([1]; Protein RASA1-NC, ref Jones et al. 2006 / Kaushansky et al. Chem and Biol 2008): 5.75 | pKd [1, 4]: 6.12 | pKd ([1]; Protein SUPT6H, ref Jones et al. 2006 / Kaushansky et al. Chem and Biol 2008): 6.04 | pKd [1, 5]: 6.43 | pKd [1, 6]: 5.93 | pKd [2, 7]: 5.74

RLLDIDETEpYHADGGKVd [ErbB2 877]
pKd ([1]; Protein BLK, ref Kaushansky et al. Chem and Biol 2008): 6.14 | pKd ([1]; Protein PLCG2-N, ref Kaushansky et al. Chem and Biol 2008): 6.19 | pKd ([1]; Protein PLCG2-NC, ref Kaushansky et al. Chem and Biol 2008): 5.96 | pKd ([1]; Protein RASA1-NC, ref Kaushansky et al. Chem and Biol 2008): 5.85 | pKd ([1]; Protein YES1, ref Kaushansky et al. Chem and Biol 2008): 5.72 | pKd ([2]; ref Kaushansky et al. Chem and Biol 2008): 5.92

TEEEDEDEEpYEYMNRRR [ErbB3 1197]
pKd ([1]; Protein ABL1, ref Jones et al. 2006 / Kaushansky et al. Chem and Biol 2008): 5.84 | pKd ([1]; Protein ABL2, ref Jones et al. 2006 / Kaushansky et al. Chem and Biol 2008): 5.95 | pKd [1, 3]: 7.15 | pKd ([1]; Protein FGR, ref Jones et al. 2006 / Kaushansky et al. Chem and Biol 2008): 6.15 | pKd ([1]; Protein LYN, ref Jones et al. 2006 / Kaushansky et al. Chem and Biol 2008): 5.97 | pKd [1, 4]: 6.06 | pKd [1, 5]: 6.05 | pKd [1, 6]: 6.89 | pKd [2, 7]: 6.89
